In PubChem BioAssay AID1918934 (Molecular Pharmacology Branch, DTP, NCI, 2023):

Test system: 292921-168-R-J2-PDC complex spheroid viability
Experiment: Anticancer human tumor 292921-168-R-J2-PDC patient-derived pancreatic carcinoma cell line growth inhibition
Conditions: for IC50: curve of first compound; for viability, T/C: stronger effect = lower value
Summary of the method: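 Drug combinations with the LSD1 inhibitor iadademstat tested on tumor cells co-cultured as spheroids with endothelial cells and mesenchymal stem cells. Concentrations descended in half-log increments from clinical Cmax or 10 microM.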

[1] = second compound 0.1 µM, first compound 0.0316 µM
[2] = second compound 0.1 µM, first compound 0.1 µM
[3] = second compound 0.316 µM, first compound 0.0316 µM
[4] = second compound 0.316 µM, first compound 0.1 µM
[5] = second compound 1 µM, first compound 0.0316 µM
[6] = second compound 1 µM, first compound 0.1 µM
[7] = second compound 3.16 µM, first compound 0.0316 µM
[8] = second compound 3.16 µM, first compound 0.1 µM
[9] = second compound 10 µM, first compound 0.0316 µM
[10] = second compound 10 µM, first compound 0.1 µM
[11] = second compound 0.1 µM, first compound 0.000949 µM
[12] = second compound 0.1 µM, first compound 0.003 µM
[13] = second compound 0.1 µM, first compound 0.00949 µM
[14] = second compound 0.1 µM, first compound 0.03 µM
[15] = second compound 0.1 µM, first compound 0.0949 µM
[16] = second compound 0.1 µM, first compound 0.3 µM
[17] = second compound 0.316 µM, first compound 0.000949 µM
[18] = second compound 0.316 µM, first compound 0.003 µM
[19] = second compound 0.316 µM, first compound 0.00949 µM
[20] = second compound 0.316 µM, first compound 0.03 µM
[21] = second compound 0.316 µM, first compound 0.0949 µM
[22] = second compound 0.316 µM, first compound 0.3 µM
[23] = second compound 1 µM, first compound 0.000949 µM
[24] = second compound 1 µM, first compound 0.003 µM
[25] = second compound 1 µM, first compound 0.00949 µM
[26] = second compound 1 µM, first compound 0.03 µM
[27] = second compound 1 µM, first compound 0.0949 µM
[28] = second compound 1 µM, first compound 0.3 µM
[29] = second compound 3.16 µM, first compound 0.000949 µM
[30] = second compound 3.16 µM, first compound 0.003 µM
[31] = second compound 3.16 µM, first compound 0.00949 µM
[32] = second compound 3.16 µM, first compound 0.03 µM
[33] = second compound 3.16 µM, first compound 0.0949 µM
[34] = second compound 3.16 µM, first compound 0.3 µM
[35] = second compound 10 µM, first compound 0.000949 µM
[36] = second compound 10 µM, first compound 0.003 µM
[37] = second compound 10 µM, first compound 0.00949 µM
[38] = second compound 10 µM, first compound 0.03 µM
[39] = second compound 10 µM, first compound 0.0949 µM
[40] = second compound 10 µM, first compound 0.3 µM
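Further: seven day compound exposure before luminescent viability read.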
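Wherever viability, T/C is given: 100% = DMSO vehicle control wells.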

Structure (SMILES): CC(C)CC(NC(=O)C(Cc1ccccc1)NC(=O)c1cnccn1)B(O)O (stereo not given) + NC1CCC(NC2CC2c2ccccc2)CC1
- IC50 (second compound 0.1 µM): < 0.316 nM
- IC50 (second compound 0.316 µM): < 0.316 nM
- IC50 (second compound 1 µM): < 0.316 nM
- IC50 (second compound 3.16 µM): < 0.316 nM
- IC50 (second compound 10 µM): < 0.316 nM
- viability, T/C (second compound 0.1 µM, first compound 0.000316 µM): 16.3%
- viability, T/C (second compound 0.1 µM, first compound 0.001 µM): 0.63%
- viability, T/C (second compound 0.1 µM, first compound 0.00316 µM): 0.17%
- viability, T/C (second compound 0.1 µM, first compound 0.01 µM): 0.16%
- viability, T/C [1]: 0.11%
- viability, T/C [2]: 0.14%
- viability, T/C (second compound 0.316 µM, first compound 0.000316 µM): 15.9%
- viability, T/C (second compound 0.316 µM, first compound 0.001 µM): 0.67%
- viability, T/C (second compound 0.316 µM, first compound 0.00316 µM): 0.21%
- viability, T/C (second compound 0.316 µM, first compound 0.01 µM): 3.23%
- viability, T/C [3]: 0.17%
- viability, T/C [4]: 0.19%
- viability, T/C (second compound 1 µM, first compound 0.000316 µM): 16.1%
- viability, T/C (second compound 1 µM, first compound 0.001 µM): 0.64%
- viability, T/C (second compound 1 µM, first compound 0.00316 µM): 0.24%
- viability, T/C (second compound 1 µM, first compound 0.01 µM): 0.12%
- viability, T/C [5]: 0.26%
- viability, T/C [6]: 0.25%
- viability, T/C (second compound 3.16 µM, first compound 0.000316 µM): 13.8%
- viability, T/C (second compound 3.16 µM, first compound 0.001 µM): 0.62%
- viability, T/C (second compound 3.16 µM, first compound 0.00316 µM): 0.17%
- viability, T/C (second compound 3.16 µM, first compound 0.01 µM): 0.1%
- viability, T/C [7]: 0.08%
- viability, T/C [8]: 0.16%
- viability, T/C (second compound 10 µM, first compound 0.000316 µM): 12.2%
- viability, T/C (second compound 10 µM, first compound 0.001 µM): 0.55%
- viability, T/C (second compound 10 µM, first compound 0.00316 µM): 0.22%
- viability, T/C (second compound 10 µM, first compound 0.01 µM): 0.19%
- viability, T/C [9]: 0.14%
- viability, T/C [10]: 0.47%

Structure (SMILES): CCc1c2c(nc3ccc(O)cc13)-c1cc3c(c(=O)n1C2)COC(=O)[C@]3(O)CC + NC1CCC(NC2CC2c2ccccc2)CC1
- IC50 (second compound 0.1 µM): < 0.949 nM
- IC50 (second compound 0.316 µM): < 0.949 nM
- IC50 (second compound 1 µM): < 0.949 nM
- IC50 (second compound 3.16 µM): < 0.949 nM
- IC50 (second compound 10 µM): < 0.949 nM
- viability, T/C [11]: 5.27%
- viability, T/C [12]: 3.61%
- viability, T/C [13]: 1.77%
- viability, T/C [14]: 0.99%
- viability, T/C [15]: 0.98%
- viability, T/C [16]: 1.08%
- viability, T/C [17]: 5.76%
- viability, T/C [18]: 4.37%
- viability, T/C [19]: 1.62%
- viability, T/C [20]: 0.85%
- viability, T/C [21]: 0.86%
- viability, T/C [22]: 1.09%
- viability, T/C [23]: 5.78%
- viability, T/C [24]: 3.94%
- viability, T/C [25]: 1.33%
- viability, T/C [26]: 0.71%
- viability, T/C [27]: 0.85%
- viability, T/C [28]: 0.78%
- viability, T/C [29]: 6.37%
- viability, T/C [30]: 3.93%
- viability, T/C [31]: 1.39%
- viability, T/C [32]: 0.55%
- viability, T/C [33]: 0.97%
- viability, T/C [34]: 0.91%
- viability, T/C [35]: 4.96%
- viability, T/C [36]: 3.66%
- viability, T/C [37]: 0.99%
- viability, T/C [38]: 0.7%
- viability, T/C [39]: 0.8%
- viability, T/C [40]: 0.74%

Structure (SMILES): Nc1ccccc1NC(=O)c1ccc(CNC(=O)OCc2cccnc2)cc1 + NC1CCC(NC2CC2c2ccccc2)CC1
- IC50 (second compound 0.1 µM): 28.7 nM
- IC50 (second compound 0.316 µM): 15.1 nM
- IC50 (second compound 1 µM): < 9.49 nM
- IC50 (second compound 3.16 µM): 13.1 nM
- IC50 (second compound 10 µM): < 9.49 nM
- viability, T/C [13]: 61.3%
- viability, T/C [14]: 48.3%
- viability, T/C [15]: 34.6%
- viability, T/C [16]: 20.5%
- viability, T/C (second compound 0.1 µM, first compound 0.949 µM): 3.31%
- viability, T/C (second compound 0.1 µM, first compound 3 µM): 0.22%
- viability, T/C [19]: 53.1%
- viability, T/C [20]: 45.2%
- viability, T/C [21]: 34.6%
- viability, T/C [22]: 18.8%
- viability, T/C (second compound 0.316 µM, first compound 0.949 µM): 3.86%
- viability, T/C (second compound 0.316 µM, first compound 3 µM): 0.24%
- viability, T/C [25]: 50.8%
- viability, T/C [26]: 39.9%
- viability, T/C [27]: 33.4%
- viability, T/C [28]: 20.6%
- viability, T/C (second compound 1 µM, first compound 0.949 µM): 3.16%
- viability, T/C (second compound 1 µM, first compound 3 µM): 0.22%
- viability, T/C [31]: 52.9%
- viability, T/C [32]: 43%
- viability, T/C [33]: 27.2%
- viability, T/C [34]: 16.3%
- viability, T/C (second compound 3.16 µM, first compound 0.949 µM): 2.26%
- viability, T/C (second compound 3.16 µM, first compound 3 µM): 0.38%
- viability, T/C [37]: 42.5%
- viability, T/C [38]: 39.5%
- viability, T/C [39]: 26.8%
- viability, T/C [40]: 14.2%
- viability, T/C (second compound 10 µM, first compound 0.949 µM): 0.79%
- viability, T/C (second compound 10 µM, first compound 3 µM): 0.3%

Structure (SMILES): Nc1ccn(C2OC(CO)C(O)C2(F)F)c(=O)n1 (stereo not given) + NC1CCC(NC2CC2c2ccccc2)CC1
- IC50 (second compound 0.1 µM): < 0.949 nM
- IC50 (second compound 0.316 µM): < 0.949 nM
- IC50 (second compound 1 µM): < 0.949 nM
- IC50 (second compound 3.16 µM): < 0.949 nM
- IC50 (second compound 10 µM): < 0.949 nM
- viability, T/C [11]: 27.8%
- viability, T/C [12]: 9.83%
- viability, T/C [13]: 8.07%
- viability, T/C [14]: 6.88%
- viability, T/C [15]: 7.25%
- viability, T/C [16]: 6.85%
- viability, T/C [17]: 28.2%
- viability, T/C [18]: 11.6%
- viability, T/C [19]: 6.99%
- viability, T/C [20]: 6.4%
- viability, T/C [21]: 8.06%
- viability, T/C [22]: 7.6%
- viability, T/C [23]: 21.8%
- viability, T/C [24]: 10.7%
- viability, T/C [25]: 8.29%
- viability, T/C [26]: 7.78%
- viability, T/C [27]: 8.71%
- viability, T/C [28]: 7.52%
- viability, T/C [29]: 22.2%
- viability, T/C [30]: 10.4%
- viability, T/C [31]: 8.35%
- viability, T/C [32]: 7.52%
- viability, T/C [33]: 8.12%
- viability, T/C [34]: 8.1%
- viability, T/C [35]: 23.4%
- viability, T/C [36]: 10.2%
- viability, T/C [37]: 9%
- viability, T/C [38]: 9.62%
- viability, T/C [39]: 8.3%
- viability, T/C [40]: 9.08%

Structure (SMILES): O=C(c1cc(Cc2n[nH]c(=O)c3ccccc23)ccc1F)N1CCN(C(=O)C2CC2)CC1 + NC1CCC(NC2CC2c2ccccc2)CC1
- IC50 (second compound 0.1 µM): 4520 nM
- IC50 (second compound 0.316 µM): 3020 nM
- IC50 (second compound 1 µM): 1060 nM
- IC50 (second compound 3.16 µM): 1220 nM
- IC50 (second compound 10 µM): 1300 nM
- viability, T/C [1]: 63.7%
- viability, T/C [2]: 65.6%
- viability, T/C (second compound 0.1 µM, first compound 0.316 µM): 70.3%
- viability, T/C (second compound 0.1 µM, first compound 1 µM): 58.6%
- viability, T/C (second compound 0.1 µM, first compound 3.16 µM): 55%
- viability, T/C (second compound 0.1 µM, first compound 10 µM): 39.5%
- viability, T/C [3]: 61.5%
- viability, T/C [4]: 59.8%
- viability, T/C (second compound 0.316 µM, first compound 0.316 µM): 64.7%
- viability, T/C (second compound 0.316 µM, first compound 1 µM): 57.1%
- viability, T/C (second compound 0.316 µM, first compound 3.16 µM): 47.5%
- viability, T/C (second compound 0.316 µM, first compound 10 µM): 36%
- viability, T/C [5]: 55.5%
- viability, T/C [6]: 58.6%
- viability, T/C (second compound 1 µM, first compound 0.316 µM): 51.8%
- viability, T/C (second compound 1 µM, first compound 1 µM): 51.9%
- viability, T/C (second compound 1 µM, first compound 3.16 µM): 42.5%
- viability, T/C (second compound 1 µM, first compound 10 µM): 31.8%
- viability, T/C [7]: 55.4%
- viability, T/C [8]: 54.5%
- viability, T/C (second compound 3.16 µM, first compound 0.316 µM): 60%
- viability, T/C (second compound 3.16 µM, first compound 1 µM): 50.3%
- viability, T/C (second compound 3.16 µM, first compound 3.16 µM): 42%
- viability, T/C (second compound 3.16 µM, first compound 10 µM): 34.9%
- viability, T/C [9]: 53.9%
- viability, T/C [10]: 54.4%
- viability, T/C (second compound 10 µM, first compound 0.316 µM): 54.4%
- viability, T/C (second compound 10 µM, first compound 1 µM): 52%
- viability, T/C (second compound 10 µM, first compound 3.16 µM): 42.9%
- viability, T/C (second compound 10 µM, first compound 10 µM): 32%
